The assay deals with MDA-MB-468 breast. The assay is described as follows: NCI tumour cell line growth inhibition, 48 h.

SMILES strings stand for the structures.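 96-well plates; 48 h exposure; 5 concentrations. Endpoints by linear interpolation between flanking doses. Not reached: highest tested concentration assigned. Here, GI50 denotes the concentration required for 50% inhibition of growth. TGI marks complete inhibition of growth.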 Bounds are passed on as bounds.

GI50 and TGI data for 40 compounds are collected here from PubChem BioAssay (NCI).

As to `CCN(CC)CCOc1ccc(/C(=C(\C)Cc2ccc(OC)cc2)c2ccc(O)cc2)cc1`, the GI50 was 1.54 µM and the TGI worked out at 3.05 µM.
The corresponding values for `N#Cc1c(-c2ccccc2)nc(SCC(O)CN2CCOCC2)nc1N1CCOCC1` (centres undefined) are 2.16 µM and 21.5 µM.
The like results for `CC[C@]1(O)CC2CN(CCc3c([nH]c4ccccc34)C(C(=O)OC)(c3cc4c(cc3OC)N(C=O)[C@H]3[C@@](O)(C(=O)OC)[C@H](OC(C)=O)[C@]5(CC)[C@@H]6C[C@@H]6CN6CC[C@]43[C@@H]65)C2)C1` (some centres undefined) were, in that order, less than 0.00325 µM and less than 0.00325 µM.
The like results for `CCCCNC(=O)CC1=C(C)/C(=C/c2[nH]c(-c3ccc[nH]3)cc2OC)N=C1C` were, in that order, 2.04 µM and 7.5 µM.
For `Cc1ncnc2c1ccn2[C@@H]1C[C@H](Oc2cc(C(F)F)c(F)c3c2CNCC3)[C@@H](O)[C@H]1O`, the GI50 was greater than 100 µM and the TGI was greater than 100 µM.
In the case of `Cc1ccc2c(-c3ccnc(Nc4cccc(C(F)(F)F)c4)n3)c(-c3ccccc3)nn2n1`, the GI50 is 0.509 µM and the TGI amounted to 4.58 µM.
The like results for `Cc1c(Br)c(Br)c2c3c1nc(N1CCNCC1)n3CCC2` were, in that order, 1.6 µM and 3.31 µM.
The like results for `CN(C)C/C=C/C(=O)Nc1ccc(C(=O)Nc2cccc(Nc3ncc(Cl)c(-c4c[nH]c5ccccc45)n3)c2)cc1` were, in that order, 0.018 µM and 0.043 µM.
The like results for `CC(C)N(CCNc1nc(C(Cl)(Cl)Cl)nc2cc(Cl)ccc12)C(C)C` were, in that order, 1.38 µM and 2.82 µM.
Take `CCN1C[C@@H](C)n2c(c(O)c3c(=O)n(Cc4ccc(F)c(Cl)c4)nc(C(=O)NC)c32)C1=O`: the GI50 was 2.51 µM and the TGI is 8.18 µM.
For `Cn1cc(Nc2nccc(-c3ccc4c(c3)CN(C3COC3)CC[C@H]4NC(=O)c3cn(C(C)(C)C)nn3)n2)cn1`, the GI50 was 39 µM and the TGI was greater than 100 µM.
Turning to `Cc1ccc(/C=C(/C#N)n2nnc3cccc(F)c32)cc1`, the GI50 was 0.702 µM and the TGI came to 6.3 µM.
The corresponding values for `Nc1ncc(-c2ccc3ncnc(N4CCc5cc(F)c(Cl)cc54)c3c2)cc1C=O` are 0.306 µM and 1.63 µM.
The like results for `C/C=C(/C)C(=O)OC1C=C(CO)C(=O)C(OC(=O)C2(C)OC2C)C1C(C)C` (centres undefined) were, in that order, 1.46 µM and 3.46 µM.
As to `COc1cc(C(=O)/C=C/c2cccnc2Nc2ccc(Cl)cc2)cc(OC)c1OC`, the GI50 was 1.29 µM and the TGI turned out to be 2.67 µM.
As for `C=CCc1cc(O)ccc1O`, the GI50 was 14 µM and the TGI came out at 32.4 µM.
Consider `Cn1ccc(S(=O)(=O)N2CCC[C@H](Nc3nccc(-c4c(-c5cccc(O)c5)nc5occn45)n3)C2)n1`, for which the GI50 is 8.15 µM and the TGI worked out at 31.9 µM.
The like results for `COc1cccc(N2C(=N)/C(=C3\Nc4ccccc4S3)CC2=O)c1` were, in that order, 26.2 µM and greater than 100 µM.
Turning to `Fc1ccc(C2CC(c3cccc(Nc4ccncc4)c3)=NN2c2ccccc2)cc1` (centres undefined), the GI50 was 1.54 µM and the TGI came to 3.37 µM.
The like results for `C#Cc1ccc(C(=O)NCc2ccc(/C=C/C(=O)c3nccn3C)cc2)cc1` were, in that order, 2.6 µM and 8.76 µM.
As to `Cc1cc2c(C(C)C)c(O)c(O)c(/C=N/O)c2c(O)c1-c1c(C)cc2c(C(C)C)c(O)c(O)c(/C=N/O)c2c1O`, the GI50 was 2.05 µM and the TGI is 6.44 µM.
For `COc1ccc(-c2cc(-c3ccc(Cl)cc3)nc(SCCCC(=O)NO)n2)cc1OC`, the GI50 was 1.17 µM and the TGI is 4.27 µM.
Regarding `COc1cc(C2C=C(C)N=C3SC=C(C)N32)cc(OC)c1OC` (centres undefined), the GI50 was 1.12 µM and the TGI turned out to be 2.67 µM.
The like results for `Oc1c(Cl)cc(Cl)c(Cl)c1Cc1c(O)c(Cl)cc(Cl)c1Cl` were, in that order, 0.661 µM and 8.45 µM.
The corresponding values for `N#Cc1ncc(-c2ccc(C(F)(F)F)cc2)c(NC2CCCCCC2)n1` are 4.16 µM and greater than 100 µM.
The corresponding values for `CCN(CC)CCOc1ccc2c(-c3ccccc3)c(-c3ccc(OC)cc3)c(=O)oc2c1` are 2.58 µM and 8.73 µM.
In the case of `Oc1ccc(/C=N/NC(=S)Nc2ccccc2)nc1`, the GI50 was 1.32 µM and the TGI is 4.4 µM.
With `CCNCCS(=O)(=O)NC[C@@]1(c2ccccc2)SC(NC(=O)C(C)(C)C)=NN1C(=O)C(C)(C)C`, the GI50 is less than 0.01 µM.
Take `CC(C)(Oc1cccc(N2CCC[C@@H](C(=O)N(Cc3ccc(-c4cn[nH]c4)cc3)C3CC3)C2)c1)C(=O)N1CCNCC1`: the GI50 is 2.23 µM and the TGI was determined as 6.8 µM.
The corresponding values for `CN1CCC(=C(c2ccc(Cl)cc2)c2ccccn2)CC1` are 38.9 µM and greater than 100 µM.
The corresponding values for `O=C(Nc1nc2ccc(OC(F)(F)F)cc2s1)c1ccc(F)cc1` are 2.36 µM and 7.36 µM.
Consider `CN1C(=O)[C@@H](CC2CCCC2)N(C2CCCC2)c2nc(Nc3cc(Cl)c(O)c(Cl)c3)ncc21`, for which the GI50 is 19.1 µM and the TGI amounted to 89.9 µM.
The like results for `CCOC(=O)C(Cc1ccccc1)n1c(O)c(/C=N/c2ncc(Cc3ccc(Cl)cc3Cl)s2)sc1=S` (centres undefined) were, in that order, 2.48 µM and 7.35 µM.
In the case of `CC(C)=CCc1c2c(c(O)c3c1O[C@]14C(=C[C@@H]5C[C@H]1C(C)(C)O[C@@]4(C/C=C(/C)C(=O)O)C5=O)C3=O)C=CC(C)(C)O2`, the GI50 was 15.8 µM and the TGI was 35.5 µM.
For `CC(=O)NC(CCc1ccc(Cl)c(Cl)c1)c1cccc(O)c(=O)c1` (centres undefined), the GI50 was 0.442 µM and the TGI stood at 4.07 µM.
The like results for `Cc1cc(NS(=O)(=O)c2ccc(-c3cnc(C4CC4)o3)cc2)ccc1Cl` were, in that order, 0.165 µM and 12.7 µM.
The corresponding values for `COC(=O)C1C(=O)C(C(=O)OC)C2CCC1N2C` (centres undefined) are 69.5 µM and greater than 100 µM.
On to `O=C1NC(=NCCc2ccccc2F)S/C1=C\c1ccc2ncccc2c1`, for which the GI50 was 2.67 µM and the TGI is greater than 18.6 µM.
For `Cc1ccc(NC(=O)c2cc(/C=C/C(=O)NO)cc(C(F)(F)F)c2)cc1Nc1nccc(-c2cccnc2)n1`, the GI50 was 1.43 µM and the TGI was 3.94 µM.
The corresponding values for `CCN(CC)Cc1cc(Nc2ccnc3ccc(OC)cc23)ccc1O` are 1.67 µM and 4.47 µM.
